Assay results taken from PubChem BioAssay AID1996.
Values after ≈ are worked out from the molar mass of the structure shown.

Details: buffer; pH 7.4; 200.0 µM

Compared with O=C(Nc1c(-c2ccc(F)cc2)nc2ccccn12)c1ccc(F)cc1, Cc1ccn2c(NC(=O)c3ccccc3)c(-c3ccccc3)nc2c1 is 1.6-fold lower in solubility kinetic: 3.3 µg/mL (≈ 9.45 µM) for the first, 2 µg/mL (≈ 6.11 µM) for the second.

First: O=C1C2C3CC(C2C(=O)N1c1cccc(Cl)c1)[C@H](O)C3O (stereo not given in full)
Second: Cc1ccc(N2C(=O)C3CCCN3C2=S)cc1 (stereo not given)
The solubility kinetic of the first is higher: over 46.2 µg/mL for the first, 34.2 µg/mL (≈ 139 µM) for the second.

Going from Cc1ccc(OCC(=O)N2CCc3ccccc3C2)cc1 to CC(OC(=O)c1cccc(N(C)C)c1)C(=O)N1CCc2ccccc2C1 (stereo not given), the solubility kinetic falls from over 42.2 µg/mL to 37.3 µg/mL (≈ 106 µM).

Compared with Cc1noc(C)c1COc1ccccc1C(=O)NC1CCC(C)CC1 (stereo not given), COc1ccc(-c2cc(C(=O)NC3CCCC3)c3ccccc3n2)cc1 is lower in solubility kinetic: over 51.4 µg/mL for the first, 4.7 µg/mL (≈ 13.6 µM) for the second.

Going from COc1ccccc1CNC(=O)c1ccc2ccccc2n1 to O=C(Nc1ccccc1N1CCCC1)c1ccc2ccccc2c1, the solubility kinetic falls from 15.8 µg/mL (≈ 54 µM) to 2.7 µg/mL (≈ 8.53 µM) (5.9-fold).

First: Nc1ccc(S(=O)(=O)[O-])c[nH+]1
Second: CN(C)c1nc(F)c(F)c(S(=O)(=O)c2ccccc2)c1F
The solubility kinetic of the first is higher: over 26.1 µg/mL for the first, 12.4 µg/mL (≈ 39.2 µM) for the second.

Going from NS(=O)(=O)c1ccc(NC(=O)COC(=O)c2ncc(Cl)c(Cl)c2Cl)cc1 to O=C(CCNC(=O)c1ccco1)Nc1ccc(F)c(Cl)c1, the solubility kinetic falls from 54.7 µg/mL (≈ 125 µM) to 17.1 µg/mL (≈ 55 µM) (3.2-fold).

Going from Cc1cc(C(=O)N2CCC(Cc3ccccc3)CC2)no1 to Cc1oc(S(=O)(=O)N2CCCC2)cc1C(=O)Nc1ccccc1, the solubility kinetic falls from 36.7 µg/mL (≈ 129 µM) to 4.3 µg/mL (≈ 12.9 µM) (8.5-fold).

First: Cc1ccc(OCCn2cnc3c2c(=O)n(C)c(=O)n3C)cc1
Second: COc1ccc(Cn2c(C)nc3c(c(=O)c4ccccc4n3C)c2=O)cc1
The solubility kinetic of the first is 9-fold higher: 6.3 µg/mL (≈ 20 µM) for the first, 0.7 µg/mL (≈ 1.94 µM) for the second.

Compared with O=C(COC(=O)[C@H](Cc1ccccc1)NC(=O)c1ccco1)Nc1ccccc1, O=C(NCCCNC(=O)c1ccccc1F)c1ccco1 is lower in solubility kinetic: over 58.9 µg/mL for the first, 43.4 µg/mL (≈ 150 µM) for the second.

CC(OC(=O)c1ccc(NC(N)=O)cc1)C(=O)Nc1ccc2c(c1)OCCO2 (stereo not given) and Nn1cnnc1SCC(=O)Nc1ccc2c(c1)OCO2 cannot be ordered by solubility kinetic: over 57.8 µg/mL for the first, over 44 µg/mL for the second.

Cl.O=C(NCCN1CCCC1)c1ccc(Br)cc1 and O=C(C1CC(=O)N(c2ccc(F)cc2)C1)N1CCCCCC1 (stereo not given) cannot be ordered by solubility kinetic: over 50 µg/mL for the first, over 45.7 µg/mL for the second.

Compared with COc1cccc(CN(C)C(=S)Nc2cccc(C)c2)c1, Cc1cccc(NC(=S)N2CCN(C(=O)c3ccco3)CC2)c1 is higher in solubility kinetic: 40.4 µg/mL (≈ 134 µM) for the first, over 49.4 µg/mL for the second.

Compared with CN(C)CCNC(=O)C(=O)Nc1cc2c3c(c1)CCC(=O)N3CCC2, CC(=O)NCCc1nc2cc(NC(=O)c3cccs3)ccc2n1C is higher in solubility kinetic: 50.9 µg/mL (≈ 148 µM) for the first, over 51.4 µg/mL for the second.

CC(c1ccccc1)n1cnc2ccccc2c1=O (stereo not given) and CCN(Cc1ccccc1)C(=O)c1c(-c2ccccc2Cl)noc1C cannot be ordered by solubility kinetic: over 37.5 µg/mL for the first, 38.7 µg/mL (≈ 109 µM) for the second.

First: Cc1ccc(S(=O)(=O)C2(C(=O)NCCc3ccccc3)CC2)cc1
Second: CCOc1ccc(NC(=O)NCCCCc2ccccc2)cc1
The solubility kinetic of the first is 130-fold higher: 50.5 µg/mL (≈ 147 µM) for the first, 0.4 µg/mL (≈ 1.28 µM) for the second.

Going from Cc1ccc(CNC(=O)c2cc(=O)c3cc(C)ccc3o2)cc1 to Cc1ccc(C)c(NS(=O)(=O)c2ccccc2C)c1, the solubility kinetic rises from under 0.7 µg/mL to 38.8 µg/mL (≈ 141 µM).

Going from Clc1ccc2c(c1)C(N1CCNCC1)=Nc1ccccc1O2 to CC(CCN1CCN(c2ccc(F)cc2)CC1)c1ccccc1 (stereo not given), the solubility kinetic falls from 34.4 µg/mL (≈ 110 µM) to 19.6 µg/mL (≈ 62.7 µM) (1.8-fold).

COc1ccc(OCC(O)CNC(=O)c2ccccc2)cc1 (stereo not given) and COc1ccc(C(C)NC(=O)c2ccncc2)cc1 (stereo not given) are within 1.5-fold of each other in solubility kinetic: 40.1 µg/mL (≈ 133 µM) for the first, 36.2 µg/mL (≈ 141 µM) for the second.

First: CCOc1ccc(-c2cn(-c3ccccc3OC)c(=S)[nH]2)cc1
Second: COc1ccc(NCc2cc(=O)[nH]c3ccccc23)cc1
The solubility kinetic of the first is 2.2-fold higher: 17.7 µg/mL (≈ 54.2 µM) for the first, 8 µg/mL (≈ 28.5 µM) for the second.

First: CC(=O)N1CCc2cc(S(=O)(=O)NC3CCCCC3)ccc21
Second: COc1cc(OC)cc(C(=O)NC(=S)N2CCCCCC2)c1
The solubility kinetic of the first is 6.8-fold lower: 6.4 µg/mL (≈ 19.8 µM) for the first, 43.6 µg/mL (≈ 135 µM) for the second.

Going from O=C(NC1=NCCS1)c1cccc(F)c1 to Cc1cc(NC(=O)c2cccc(Br)c2)no1, the solubility kinetic falls from over 33.6 µg/mL to 4.2 µg/mL (≈ 14.9 µM).

Going from CC1(C)CC2(CCO1)OC(=O)CC2C(=O)Nc1ccc(Cl)cc1[N+](=O)[O-] (stereo not given) to CNC(=O)c1cc(C(=O)c2ccc(Cl)cc2)c(Br)[nH]1, the solubility kinetic falls from over 57.4 µg/mL to 1.7 µg/mL (≈ 4.98 µM).

Going from CCN1CCN(C(=S)NC(=O)/C=C/c2cccs2)CC1 to CN1CCN(CCOc2ccc(-c3ccccc3)cc2)CC1.Cl, the solubility kinetic rises from 44.8 µg/mL (≈ 145 µM) to over 49.9 µg/mL.

Compared with CC(C)Oc1cccc(C(=O)C2CCCN(C(=O)c3ccsc3)C2)c1 (stereo not given), COc1cccc(-c2nc(CCl)cs2)c1.Cl is 2-fold lower in solubility kinetic: 44.8 µg/mL (≈ 125 µM) for the first, 22.4 µg/mL for the second.

Compared with Fc1ccc(CNC(=S)NCc2ccccc2)cc1, O=C(O)Cc1ccc(NC(=O)Nc2cccc3ccccc23)cc1 is 4.1-fold higher in solubility kinetic: 11 µg/mL (≈ 40.1 µM) for the first, 45.1 µg/mL (≈ 141 µM) for the second.

CC(C)(C)S(=O)(=O)c1cnc(-c2cnccn2)nc1N and O=C(O)c1nccnc1C(=O)Nc1ccccc1N1CCOCC1 cannot be ordered by solubility kinetic: over 44 µg/mL for the first, over 49.2 µg/mL for the second.

Going from COc1ccc(C(=O)O/N=C(\N)c2ccc(OC)c(OC)c2)cc1 to CCSc1ccc(/C(N)=N/OC(=O)c2cccs2)cn1, the solubility kinetic falls from 9.3 µg/mL (≈ 28.2 µM) to 0.3 µg/mL (≈ 0.976 µM) (31-fold).

Compared with O=C(NCC1COc2ccccc2O1)C1(c2ccccc2)CCCC1 (stereo not given), COC(=O)Nc1nc2ccc(Sc3ccccc3)cc2[nH]1 is 20-fold lower in solubility kinetic: 17.8 µg/mL (≈ 52.8 µM) for the first, 0.9 µg/mL (≈ 3.01 µM) for the second.

c1csc(-c2nnc(COc3ncnc4sccc34)o2)c1 and O/N=C1\CCCc2c1nc(-c1ccccc1F)n2O cannot be ordered by solubility kinetic: over 47.5 µg/mL for the first, over 39.2 µg/mL for the second.
